We go through 20 compounds from ChEMBL document CHEMBL6083213, “Discovery of benzimidazole-2-amide BNZ-111 as new tubulin inhibitor” (Bioorg Med Chem Lett, 2024).

Values after ≈ are worked out from the molar mass of the structure shown. Active and inactive are the calls of the source. The calls are words filed in the database; no cut-off is given here. A value given as a limit tells only on which side of the number the result lay.

The subject of data set [1] is A549. The data set can be described thus: Anticancer activity against human A549 cells assessed as inhibition of cell growth at 1 uM incubated for 72 hrs by MTT assay relative to control. It counts as functional.
Data set [2] deals with NCI-H460. The data set can be described thus: Anticancer activity against human NCI-H460 cells assessed as inhibition of cell growth at 1 uM incubated for 72 hrs by MTT assay relative to control. It counts as functional.
For data set [3], the system named is NCI-H1299. In words: Anticancer activity against human NCI-H1299 cells assessed as inhibition of cell growth at 1 uM incubated for 72 hrs by MTT assay relative to control. It counts as functional.
Data set [4] in a line: Half life in Sprague-Dawley rat at 2 mg/kg, iv. The data set is classed as ADME, organism-based. To be noted: in vivo.
Data set [5] can be described thus: Clearance in Sprague-Dawley rat at 2 mg/kg, iv. It counts as ADME, organism-based. The following applies: in vivo.
A short description of data set [6]: Volume of distribution at steady state in Sprague-Dawley rat at 2 mg/kg, iv. It counts as ADME, organism-based. To be noted: in vivo, read-out: Vdss.
The nature of data set [7]: Cmax in Sprague-Dawley rat at 10 mg/kg, po. It counts as ADME, organism-based. The following applies: in vivo.
A short description of data set [8]: AUC in Sprague-Dawley rat at 10 mg/kg, po. It counts as ADME, organism-based. The following applies: in vivo.
Data set [9] is described as follows: Oral bioavailability in Sprague-Dawley rat at 10 mg/kg. It counts as ADME, organism-based. To be noted: in vivo.
Data set [10] relates to A549. The data set can be described thus: Anticancer activity against human A549 cells incubated for 24. The data set is classed as functional, cell-based.
Data set [11] has as its system NCI-H460. In words: Anticancer activity against human NCI-H460 cells incubated for 24. It counts as functional, cell-based.
The subject of data set [12] is NCI-H1299. The data set can be described thus: Anticancer activity against human NCI-H1299 cells incubated for 24. It counts as functional, cell-based.
For a further data set, the system named is A2780. In words: Anticancer activity against human A2780 cells incubated for 24. It counts as functional, cell-based.
Another data set relates to HEY A8. The data set can be described thus: Anticancer activity against human HEY A8 cells incubated for 24. The data set is classed as functional, cell-based.
The next data set relates to Vero. The data set can be described thus: Cytotoxicity against african green monkey Vero cells incubated for 24 hrs. The data set is classed as toxicity, cell-based. To be noted: chlorocebus sabaeus.
For a further data set, the system named is HFL1. The data set can be described thus: Cytotoxicity against human HFL1 cells incubated for 24 hrs. The data set is classed as toxicity, cell-based. The following applies: hfl1, 24 h.
For a further data set, the system named is L929. The data set can be described thus: Cytotoxicity against mouse L929 cells incubated for 24 hrs. The data set is classed as toxicity, cell-based. The following applies: l929, 24 h.
The test system of another data set is NIH3T3. In words: Cytotoxicity against mouse NIH3T3 cells incubated for 24 hrs. It counts as toxicity, cell-based. To be noted: nih3t3, 24 h.
A further data set has as its system CHO-K1. The data set can be described thus: Cytotoxicity against CHO-K1 cells incubated for 24 hrs. It counts as toxicity, cell-based, Cricetulus griseus. The following applies: chinese hamster, cho-k1, 24 h.
Data set [13] is described as follows: Solubility of compound in 1 % DMSO-PBS buffer. The data set is classed as physicochemical.
Data set [14] is described as follows: Plasma protein binding in human. It counts as ADME, cell-free. The following applies: read-out: PPB (converted).
Data set [15] can be described thus: Plasma protein binding in mouse. It counts as ADME, cell-free. The following applies: read-out: PPB (converted).
Data set [16] in a line: Stability in mouse plasma assessed as parent compound remaining after 4 hrs. It counts as ADME, cell-free. To be noted: read-out: Stability.
Data set [17] can be described thus: Stability in human plasma assessed as parent compound remaining after 4 hrs. The data set is classed as ADME, cell-free. The following applies: read-out: Stability.
The nature of data set [18]: Stability in rat plasma assessed as parent compound remaining after 4 hrs. It counts as ADME, cell-free. To be noted: read-out: Stability.
Data set [19] can be described thus: Microsomal stability in human liver microsomes assessed as parent compound remaining measured after 30 mins. It counts as ADME, Microsome. To be noted: read-out: Stability.
Data set [20] is described as follows: Microsomal stability in mouse liver microsomes assessed as parent compound remaining measured after 30 mins. The data set is classed as ADME, Microsome. The following applies: read-out: Stability.
Data set [21] is described as follows: Microsomal stability in rat liver microsomes assessed as parent compound remaining measured after 30 mins. It counts as ADME, Microsome. The following applies: read-out: Stability.
The target in another data set is hERG (KCNH2) (Homo sapiens, UniProt Q12809). The data set can be described thus: Inhibition of hERG at 10 uM relative to control. It counts as toxicity.
The nature of data set [22]: Cytotoxicity against human SKOV3.ip1 cells incubated for 24 hrs. The data set is classed as toxicity, cell-based. The following applies: skov3.ip1, 24 h.
Data set [23] is described as follows: Cytotoxicity against human A2780/CP20 cells incubated for 24 hrs. The following applies: a2780/cp20, 24 h. It counts as toxicity, cell-based.
A short description of data set [24]: Cytotoxicity against human SKOV3/TR cells incubated for 24 hrs. The data set is classed as toxicity, cell-based.
The nature of data set [25]: Cytotoxicity against human HeyA8-MDR cells incubated for 24 hrs. It counts as toxicity, cell-based.
The next data set concerns HeyA8-MDR. The data set can be described thus: Antitumor activity against human HeyA8-MDR cells xenografted in mouse assessed as tumor growth inhibition. It counts as functional, cell-based.

hERG (KCNH2), sequence (Q12809 whole entry): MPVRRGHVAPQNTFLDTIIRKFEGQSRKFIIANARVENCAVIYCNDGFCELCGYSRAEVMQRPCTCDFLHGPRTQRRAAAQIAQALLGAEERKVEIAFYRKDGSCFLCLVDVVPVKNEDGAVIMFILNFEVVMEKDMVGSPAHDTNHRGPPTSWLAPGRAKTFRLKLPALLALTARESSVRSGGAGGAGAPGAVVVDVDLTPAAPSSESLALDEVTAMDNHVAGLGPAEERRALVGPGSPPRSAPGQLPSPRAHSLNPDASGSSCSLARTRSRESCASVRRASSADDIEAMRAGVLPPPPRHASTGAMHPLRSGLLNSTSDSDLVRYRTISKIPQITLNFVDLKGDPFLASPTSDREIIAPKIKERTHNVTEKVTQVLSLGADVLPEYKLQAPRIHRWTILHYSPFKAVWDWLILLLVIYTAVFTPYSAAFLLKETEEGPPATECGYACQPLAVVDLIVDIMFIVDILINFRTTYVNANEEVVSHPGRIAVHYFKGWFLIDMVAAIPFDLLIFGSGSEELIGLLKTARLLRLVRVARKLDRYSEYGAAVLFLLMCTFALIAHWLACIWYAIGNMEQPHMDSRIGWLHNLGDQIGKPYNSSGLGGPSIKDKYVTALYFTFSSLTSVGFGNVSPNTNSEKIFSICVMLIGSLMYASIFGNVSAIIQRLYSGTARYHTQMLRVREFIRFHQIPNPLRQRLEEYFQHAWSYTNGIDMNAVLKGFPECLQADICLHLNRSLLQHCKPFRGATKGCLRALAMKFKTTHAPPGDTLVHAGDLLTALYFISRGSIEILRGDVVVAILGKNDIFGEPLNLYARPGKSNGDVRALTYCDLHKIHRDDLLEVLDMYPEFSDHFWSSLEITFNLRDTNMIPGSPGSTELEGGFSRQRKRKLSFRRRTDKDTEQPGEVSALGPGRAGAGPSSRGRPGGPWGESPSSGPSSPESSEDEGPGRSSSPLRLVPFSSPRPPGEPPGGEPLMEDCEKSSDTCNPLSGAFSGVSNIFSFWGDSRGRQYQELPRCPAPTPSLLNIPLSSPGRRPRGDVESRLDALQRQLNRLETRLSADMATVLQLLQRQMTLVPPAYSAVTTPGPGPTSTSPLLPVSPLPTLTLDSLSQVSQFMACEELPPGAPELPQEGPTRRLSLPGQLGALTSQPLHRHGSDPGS

Consider `CCCOc1ccc2nc(N)[nH]c2c1`, for which the inhibition at 1 µM in the data set with A549 [1] worked out at 8%; with NCI-H460 [2], 13%; with NCI-H1299 [3], 24%.
The matching figures for `CCCOc1ccc2c(c1)nc(NC(=O)OC)n2C`: 23%, 10% and 31%.
For `CCCOc1cc2[nH]c(NC(=O)CC)nc2cc1OC` the same measures were 10%, 14% and 11%.
As to `CCCOc1ccc2nc(NC(=O)OC)n(C)c2c1`, the inhibition at 1 µM in the data set on A549 [1] was found to be 10%; in the data set with NCI-H460 [2] it was 10%; in the data set with NCI-H1299 [3] it was 19%.
`COC(=O)Nc1nc2cc(Sc3ccccc3)ccc2[nH]1` [FENBENDAZOLE]: the inhibition at 1 µM in the data set with A549 [1] came out at 44%; in the data set on NCI-H460 [2], 43%; with NCI-H1299 [3] it was 59%.
The matching figures for `CCCOc1ccc2nc(N(C)C(=O)OC)[nH]c2c1`: 0%, 8% and 22%.
As to `CC(=O)O[C@H]1C(=O)[C@@]2(C)[C@H]([C@H](OC(=O)c3ccccc3)[C@]3(O)C[C@H](OC(=O)[C@H](O)[C@@H](NC(=O)c4ccccc4)c4ccccc4)C(C)=C1C3(C)C)[C@]1(OC(C)=O)CO[C@@H]1C[C@@H]2O` [PACLITAXEL], the inhibition at 1 µM was found to be 74% in the data set on A549 [1], 63% in the data set with NCI-H460 [2] and 73% in the data set on NCI-H1299 [3].
As to `CCCOc1ccc2nc(NC(=O)OC)[nH]c2c1` [OXIBENDAZOLE], the inhibition at 1 µM with A549 [1] worked out at 58%; with NCI-H460 [2], 47%; in the data set with NCI-H1299 [3], 65%. In [4], this compound had a half-life of 27 h. The same compound had a clearance in data set [5] of 350 mL/min/kg. Moreover, the Vd in data set [6] is 413 L/kg. The compound also came in with a Cmax in data set [7] of 10 ng/mL. This compound also displayed an AUC in data set [8] of 10 ng·h/mL. Besides, the bioavailability in [9] was determined as 2.6%.
Regarding `CCOc1ccc2nc(NC(=O)OC)[nH]c2c1`, the inhibition at 1 µM with A549 [1] was 25%; in the data set on NCI-H460 [2], 27%; with NCI-H1299 [3], 23%.
Take `CCCOc1cc2[nH]c(NC(=O)CC)nc2cc1F`: the inhibition at 1 µM was determined as 64% with A549 [1], 63% with NCI-H460 [2] and 62% in the data set with NCI-H1299 [3]. The same compound gave a half-life in data set [4] of 0.3 h. In data set [5], this compound gave a clearance of 38.5 mL/min/kg. The Vd in data set [6] was 0.6 L/kg. The same compound yielded a Cmax in data set [7] of 2760 ng/mL. In [8], this compound displayed an AUC of 2140 ng·h/mL. The compound further showed a bioavailability in [9] of 50%. For the same compound, the outcome in the data set on A549 [10], with NCI-H460 [11], in the data set with NCI-H1299 [12], in the data set on A2780 and in the data set with HEY A8 was Active. Also, the Activity entry (in the data set on Vero; in the data set on HFL1; with L929; in the data set with NIH3T3; in the data set on CHO-K1; in data set [22]) was “Non-toxic” in each case. The Activity result in data set [23], in data set [24] and in [25] was “Non-toxic” throughout. For the same compound, the solubility in data set [13] is 53 µM (≈ 14.1 µg/mL). The fraction unbound in [14] was 0.17; in data set [15] it was 0.15. Besides, the remaining at 4 h in data set [16] was 95%; in data set [17], greater than 99%; in [18] it was 95%. Besides, the remaining at 0.5 h in [19] stood at 29%; in [20], 2.6%; in data set [21], 20%. Further, testing at 10 µM on hERG (KCNH2) gave an inhibition of 29%. Also, the TGI entry in the data set with HeyA8-MDR is “Active”.
As for `CCCCc1ccc2[nH]c(NC(=O)OC)nc2c1` [PARBENDAZOLE], the inhibition at 1 µM in the data set with A549 [1] amounted to 47%; in the data set on NCI-H460 [2], 27%; in the data set with NCI-H1299 [3], 37%.
The matching figures for `COC(=O)Nc1nc2ccc(OCCCF)cc2[nH]1`: 28%, 20% and 25%.
The matching figures for `CCCCOc1ccc2nc(NC(=O)OC)[nH]c2c1`: 30%, 31% and 39%.
As to `CCCOc1cc2[nH]c(NC(=O)CC)nc2cc1Cl`, the inhibition at 1 µM was 58% in the data set with A549 [1], 60% with NCI-H460 [2] and 55% in the data set with NCI-H1299 [3].
For `CCCOc1ccc2nc(NS(=O)(=O)CC)[nH]c2c1` the same measures were 4%, 6% and 9%.
For `CCCOc1cc2[nH]c(NC(=O)CC)nc2cc1C` the same measures were 34%, 40% and 26%.
Regarding `CCCOc1ccc2nc(NC(=O)CC)[nH]c2c1`, the inhibition at 1 µM with A549 [1] came out at 58%; in the data set on NCI-H460 [2], 46%; in the data set on NCI-H1299 [3], 64%. The half-life in [4] was 18.6 h. Moreover, in data set [5], the clearance is 45.5 mL/min/kg. In addition, in data set [6], the Vd was found to be 6.4 L/kg. Moreover, the Cmax in data set [7] was determined as 1560 ng/mL. Further, in data set [8], the AUC is 930 ng·h/mL. The bioavailability in [9] is 25%.
For the compound `COC(=O)Nc1nc2ccc(OCCC(F)(F)F)cc2[nH]1`, the inhibition at 1 µM in the data set with A549 [1] turned out to be 18%; with NCI-H460 [2] it was 17%; in the data set with NCI-H1299 [3] it was 24%.
In the case of `CCCOc1ccc2nc(NC(=O)NC)[nH]c2c1`, the figures for the inhibition at 1 µM with A549 [1], with NCI-H460 [2] and in the data set with NCI-H1299 [3] were 59%, 54% and 65%, respectively. The compound also had a half-life in [4] of 0.25 h. This compound also showed a clearance in data set [5] of 132 mL/min/kg. Further, in data set [6], the Vd stood at 2.8 L/kg. Moreover, the highest level in data set [7] (Cmax) was 580 ng/mL. Moreover, the AUC in [8] was found to be 590 ng·h/mL. Further, the bioavailability in [9] was found to be 44%.
With `COC(=O)Nc1nc2cc(C(=O)c3ccccc3)ccc2[nH]1` [MEBENDAZOLE], the inhibition at 1 µM in the data set on A549 [1] amounted to 48%; with NCI-H460 [2], 46%; in the data set with NCI-H1299 [3], 52%.
